According to PubChem BioAssay (NCI):
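How tested: cells in 96-well plates exposed to compound for 48 hours at five concentrations. GI50: concentration for 50% inhibition of growth. TGI is the concentration that stops growth completely.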

Legend:
Test in all cases: NCI anticancer screen, dose series, 48 h
COLO 205 colon = test system: COLO 205 colon
MCF7 breast = test system: MCF7 breast
SF-268 CNS = test system: SF-268 CNS
MALME-3M melanoma = test system: MALME-3M melanoma
IGROV1 ovarian = test system: IGROV1 ovarian
OVCAR-3 ovarian = test system: OVCAR-3 ovarian
MDA-MB-435 = test system: MDA-MB-435
UACC-62 melanoma = test system: UACC-62 melanoma
RXF 393 renal = test system: RXF 393 renal
OVCAR-4 ovarian = test system: OVCAR-4 ovarian
OVCAR-5 ovarian = test system: OVCAR-5 ovarian
SK-MEL-28 melanoma = test system: SK-MEL-28 melanoma
OVCAR-8 ovarian = test system: OVCAR-8 ovarian
NCI-H460 lung = test system: NCI-H460 lung
SK-MEL-5 melanoma = test system: SK-MEL-5 melanoma
SW-620 colon = test system: SW-620 colon
SF-539 CNS = test system: SF-539 CNS
ACHN renal = test system: ACHN renal
U251 CNS = test system: U251 CNS
PC-3 prostate = test system: PC-3 prostate
RPMI-8226 leukemia = test system: RPMI-8226 leukemia
HOP-62 NSCLC = test system: HOP-62 NSCLC
NCI-H226 lung = test system: NCI-H226 lung
HL-60(TB) leukemia = test system: HL-60(TB) leukemia
HCT-15 colon = test system: HCT-15 colon
SR leukemia = test system: SR leukemia
KM12 colon = test system: KM12 colon
MOLT-4 leukemia = test system: MOLT-4 leukemia
HOP-92 NSCLC = test system: HOP-92 NSCLC
SNB-19 CNS = test system: SNB-19 CNS
A498 renal = test system: A498 renal
T-47D breast = test system: T-47D breast
HCC-2998 colon = test system: HCC-2998 colon
MDA-MB-231 breast = test system: MDA-MB-231 breast
HT29 colon = test system: HT29 colon
LOX IMVI melanoma = test system: LOX IMVI melanoma
HS 578T breast = test system: HS 578T breast
UACC-257 melanoma = test system: UACC-257 melanoma
786-0 renal = test system: 786-0 renal
DU-145 prostate = test system: DU-145 prostate
BT-549 breast = test system: BT-549 breast
SK-MEL-2 melanoma = test system: SK-MEL-2 melanoma
NCI-H522 lung = test system: NCI-H522 lung
UO-31 renal = test system: UO-31 renal
SNB-75 CNS = test system: SNB-75 CNS
CCRF-CEM leukemia = test system: CCRF-CEM leukemia
EKVX NSCLC = test system: EKVX NSCLC
SF-295 CNS = test system: SF-295 CNS
CAKI-1 renal = test system: CAKI-1 renal
A549 NSCLC = test system: A549 NSCLC
SN12C renal = test system: SN12C renal
TK-10 renal = test system: TK-10 renal
SK-OV-3 ovarian = test system: SK-OV-3 ovarian
NCI-H23 lung = test system: NCI-H23 lung
NCI/ADR-RES ovarian = test system: NCI/ADR-RES ovarian
HCT-116 colon = test system: HCT-116 colon

Question: Which results are given for `O=C(Cc1ccc(/C=C/C(=O)c2ncc[nH]2)cc1)Nc1ccc(Cl)cc1`?
Answer: GI50 (COLO 205 colon): 3.01 µM; TGI (COLO 205 colon): 7.42 µM; GI50 (MCF7 breast): 0.741 µM; TGI (MCF7 breast): 4.73 µM; GI50 (SF-268 CNS): 1.65 µM; TGI (SF-268 CNS): > 25 µM; GI50 (MALME-3M melanoma): 6.24 µM; TGI (MALME-3M melanoma): 18.5 µM; GI50 (IGROV1 ovarian): 3.59 µM; TGI (IGROV1 ovarian): 15.4 µM; GI50 (OVCAR-3 ovarian): 1.14 µM; TGI (OVCAR-3 ovarian): 4.29 µM; GI50 (MDA-MB-435): 4.14 µM; TGI (MDA-MB-435): > 25 µM; GI50 (UACC-62 melanoma): 3.94 µM; TGI (UACC-62 melanoma): 9.48 µM; GI50 (RXF 393 renal): 3.05 µM; TGI (RXF 393 renal): 6.93 µM; GI50 (OVCAR-4 ovarian): 4.11 µM; TGI (OVCAR-4 ovarian): > 25 µM; GI50 (OVCAR-5 ovarian): 3.3 µM; TGI (OVCAR-5 ovarian): 7.78 µM; GI50 (SK-MEL-28 melanoma): 4.81 µM; TGI (SK-MEL-28 melanoma): 11.7 µM; GI50 (OVCAR-8 ovarian): 3.65 µM; TGI (OVCAR-8 ovarian): 16 µM; GI50 (NCI-H460 lung): 3.43 µM; TGI (NCI-H460 lung): > 25 µM; GI50 (SK-MEL-5 melanoma): 6.16 µM; TGI (SK-MEL-5 melanoma): 17.4 µM; GI50 (SW-620 colon): 1.43 µM; TGI (SW-620 colon): > 25 µM; GI50 (SF-539 CNS): 3.33 µM; TGI (SF-539 CNS): 7.03 µM; GI50 (ACHN renal): 4.04 µM; TGI (ACHN renal): 7.66 µM; GI50 (U251 CNS): 1.02 µM; TGI (U251 CNS): 3.49 µM; GI50 (PC-3 prostate): 2.39 µM; TGI (PC-3 prostate): 7.45 µM; GI50 (RPMI-8226 leukemia): 0.857 µM; TGI (RPMI-8226 leukemia): 3.92 µM; GI50 (HOP-62 NSCLC): 3.19 µM; TGI (HOP-62 NSCLC): 8.78 µM; GI50 (NCI-H226 lung): 7.5 µM; TGI (NCI-H226 lung): > 25 µM; GI50 (HL-60(TB) leukemia): 3.8 µM; TGI (HL-60(TB) leukemia): 21.8 µM; GI50 (HCT-15 colon): 0.879 µM; TGI (HCT-15 colon): 5.99 µM; GI50 (SR leukemia): 0.798 µM; TGI (SR leukemia): > 25 µM; GI50 (KM12 colon): 1.3 µM; TGI (KM12 colon): 5.23 µM; GI50 (MOLT-4 leukemia): 1.8 µM; TGI (MOLT-4 leukemia): 24.2 µM; GI50 (HOP-92 NSCLC): 5.74 µM; TGI (HOP-92 NSCLC): 20.9 µM; GI50 (SNB-19 CNS): 2.32 µM; TGI (SNB-19 CNS): 6.73 µM; GI50 (A498 renal): 5.48 µM; TGI (A498 renal): 13 µM; GI50 (T-47D breast): 3.24 µM; TGI (T-47D breast): 16.2 µM; GI50 (HCC-2998 colon): 3.73 µM; TGI (HCC-2998 colon): 7.48 µM; GI50 (MDA-MB-231 breast): 4.27 µM; TGI (MDA-MB-231 breast): 14.9 µM; GI50 (HT29 colon): 0.886 µM; TGI (HT29 colon): 2.96 µM; GI50 (LOX IMVI melanoma): 0.87 µM; TGI (LOX IMVI melanoma): 3.48 µM; GI50 (HS 578T breast): 18.8 µM; TGI (HS 578T breast): > 25 µM; GI50 (UACC-257 melanoma): 7.24 µM; TGI (UACC-257 melanoma): 19 µM; GI50 (786-0 renal): 1.13 µM; TGI (786-0 renal): 4.77 µM; GI50 (DU-145 prostate): 1.7 µM; TGI (DU-145 prostate): 7.39 µM; GI50 (BT-549 breast): 3.46 µM; TGI (BT-549 breast): 11.2 µM; GI50 (SK-MEL-2 melanoma): 5.53 µM; TGI (SK-MEL-2 melanoma): 14.6 µM; GI50 (NCI-H522 lung): 2.6 µM; TGI (NCI-H522 lung): 7.23 µM; GI50 (UO-31 renal): 1.69 µM; TGI (UO-31 renal): 5.11 µM; GI50 (SNB-75 CNS): 3.63 µM; TGI (SNB-75 CNS): > 25 µM; GI50 (CCRF-CEM leukemia): 1.08 µM; TGI (CCRF-CEM leukemia): > 25 µM; GI50 (EKVX NSCLC): 5.68 µM; TGI (EKVX NSCLC): 20.2 µM; GI50 (SF-295 CNS): 3.33 µM; TGI (SF-295 CNS): 9.32 µM; GI50 (CAKI-1 renal): 4.88 µM; TGI (CAKI-1 renal): 15.4 µM; GI50 (A549 NSCLC): 6.9 µM; TGI (A549 NSCLC): > 25 µM; GI50 (SN12C renal): 2.4 µM; TGI (SN12C renal): 6.91 µM; GI50 (TK-10 renal): 5.41 µM; TGI (TK-10 renal): 13.9 µM; GI50 (SK-OV-3 ovarian): 9.74 µM; TGI (SK-OV-3 ovarian): > 25 µM; GI50 (NCI-H23 lung): 2.97 µM; TGI (NCI-H23 lung): 11.5 µM; GI50 (NCI/ADR-RES ovarian): 5.02 µM; TGI (NCI/ADR-RES ovarian): > 25 µM; GI50 (HCT-116 colon): 0.848 µM; TGI (HCT-116 colon): 3.41 µM
